Results from patent US20110009454A1, “COMPOSITION FOR AGRICULTURAL USE FOR CONTROLLING OR PREVENTING PLANT DISEASES CAUSED BY PLANT PATHOGENS” (SUMITOMO CHEMICAL COMPANY, LIMITED, priority 2008, published 2011).

Tested on: Grape Downy Mildew (Plasmopara viticola)
Assay: Test Example 6: treating grape downy mildew, foliage application
Conditions: 500 ppm, foliage application 1 day after inoculation (curative), grape (Berry-A or Chardonnay seedling), 5 days green house then 1 day high humidity
Experimental: Such control effect was evaluated by visually observing the area of blotch on a test plant during a test and then comparing the area of the blotch of a plant treated with the controlling reagent of the present invention with the area of the blotch of an untreated plant.
A plastic pot was filled with sandy soil, and grape (variety: Berry-A or Chardonnay seedling) was then seeded. The grape plants were allowed to grow in a green house for 40 days. A water suspension of zoosporangium of grape Plasmopara viticola was inoculated to the aforementioned pot by spaying it. Thereafter, the grape plants were left at 23° C. at a high humidity for 1 day, and they were then air-dried, so as to obtain grape downy mildew-infected nursery plants. […] The prepared flowable formulations were set to a predetermined concentration (500 ppm) by diluting them with water, and they were then subjected to foliage application such that they could be sufficiently attached to the leaves of the aforementioned nursery grape plants. After completion of the foliage application, the plants were subjected to air-drying, and they were then left at 23° C. in a green house for 5 days. Thereafter, the plants were further left at 23° C. at a high humidity for 1 day. Thereafter, the affected areas thereof were examined.

For `Cc1ccc(Oc2ccc(CNC(=O)c3cccnc3N)s2)cc1` [compound 236], the “affected areas of treated plants relative to affected areas of untreated plants” value was at most 30%.
